Results from US20250041461A1, “[177LU] LUTETIUM-PSMA I&T COMPOSITION AND DOSIMETRY, KIT, METHOD OF MAKING, AND METHOD OF USING THEREOF” (Curium US LLC, priority 2023, published 2025).
Read-outs that look alike come from different tables or passages of the source.

Key:
[1] = Radiochemical purity of formulated ^177Lu-PSMA I&T solution by HPLC (stability over time); type: physicochemical
Experimental: pH was estimated by pH paper. Radioactivity was measured in a dose calibrator. Radiochemical purity was determined by liquid chromatography with radioactivity detection and thin layer chromatography.
Radiochemical impurities are quantified by chromatographical methods (HPLC and TLC). Radiochemical purity determined by HPLC must not be less than 95.0%
The radiochemical purity and chemical properties (pH, impurities, visual properties) of [^177Lu]Lu-PSMA I&T in the formulation composition 3 were tested on the seven batches over a time span of 70 to 72 hours from the end-of-synthesis time. Stability samples of typical therapeutic dose radioactivity and volume were stored in different conditions covering typical storage, shipment and usage of the product, including temperatures ranging from +5° C. to +40° C.
Radiochemical purity of each solution was followed by HPLC up to 71-93 hours post-radiolabeling. All solutions were stored at 22.5° C.
Sample Analysis: The pH, radioactivity concentration (RAC), PSMA I&T content, and radiochemical purity (RCP) of the formulations were determined using a variety of analytical techniques described in the following sub-sections. A detailed record of the steps performed for each analysis can be found in Attachment 1-4.
Both the determination of the assay for PSMA I&T and related substances and the RCP of the formulations were determined via HPLC analysis. The system suitability of the instrument was established by triplicate injections of a 15 ppm PSMA I&T standard prior to sample analysis and a single 15 ppm check standard every 10 sample injections. A five-point standard curve of PSMA I&T concentrations between 0.5 and 25 ppm was used to determine the PSMA I&T concentration in the formulations.

[2] = cited from earlier work

O=C([O-])CC[C@H](NC(=O)N[C@@H](CCCCNC(=O)CCCCCCC(=O)NCCCC[C@@H](NC(=O)[C@@H](Cc1ccccc1)NC(=O)[C@@H](Cc1ccc(O)c(I)c1)NC(=O)CC[C@H](C(=O)[O-])N1CCN(CC(=O)[O-])CCN(CC(=O)[O-])CCN(CC(=O)[O-])CC1)C(=O)[O-])C(=O)[O-])C(=O)[O-].[177Lu+3].[H+].[H+].[H+].[H+].[H+] [^177Lu-PSMA I&T, (3S,7S,26R,29R,32R,37R)-29-benzyl-32-(4-hydroxy-3-iodobenzyl)-5,13,20,28,31,34-hexaoxo-37-(4,7,10-tris(carboxymethyl)-1,4,7,10-tetraazacyclododecan-1-yl)-4,6,12,21,27,30,33-heptaazaheptatriacontane-1,3,7,26,37-pentacarboxylic acid; lutetium-177 (III)]
radiochemical purity by HPLC ([1]; 10 ml high RAC formulation, 42.5 mg/ml ascorbic acid, 0 hours post EOS): at least 99%
radiochemical purity by HPLC ([1]; 10 ml high RAC formulation, 42.5 mg/ml ascorbic acid, 46 hours post EOS): at least 93.3%
radiochemical purity by HPLC ([1]; 20 ml low RAC formulation, 31 mg/ml ascorbic acid, 0 hours post EOS): at least 99.1%
radiochemical purity ([1]; decreased strength (0.5 GBq/mL), 72 hours post-end-of-synthesis): above 95%
radiochemical stability among the formulations of Example 3 ([1]; low RAC solution of pH 4.5 and ascorbic acid concentration of 31 mg/ml): highest radiochemical stability
Absorbed Dose, Kidneys, Mean ± SD ([2]; First cycle (n = 15)): 0.71 ± 0.25 Gy/GBq
Absorbed Dose, Kidneys, Range ([2]; First cycle (n = 15)): 0.33-1.22 Gy/GBq
Absorbed Dose, Lacrimal glands, Mean ± SD ([2]; First cycle (n = 15)): 3.8 ± 1.5 Gy/GBq
Absorbed Dose, Lacrimal glands, Range ([2]; First cycle (n = 15)): 1.68-7.03 Gy/GBq
Absorbed Dose, Liver, Mean ± SD ([2]; First cycle (n = 15)): 0.12 ± 0.07 Gy/GBq
Absorbed Dose, Liver, Range ([2]; First cycle (n = 15)): 0.05-0.26 Gy/GBq
Absorbed Dose, Parotid glands, Mean ± SD ([2]; First cycle (n = 15)): 0.56 Gy/GBq
Absorbed Dose, Parotid glands, Range ([2]; First cycle (n = 15)): 0.25-0.84 Gy/GBq
Absorbed Dose, Submandibular glands, Mean ± SD ([2]; First cycle (n = 15)): 0.54 ± 0.29 Gy/GBq
Absorbed Dose, Submandibular glands, Range ([2]; First cycle (n = 15)): 0.25-1.35 Gy/GBq
Effective Dose, Whole body, Mean ± SD ([2]; First cycle (n = 15)): 0.05 Sv/GBq
Effective Dose, Whole body, Range ([2]; First cycle (n = 15)): 0.02-0.11 Sv/GBq
Absorbed Dose for Tumor Lesions, Lung metastases, Mean ± SD ([2]; First cycle, n 1): 2.7 Gy/GBq
Absorbed Dose for Tumor Lesions, Liver metastases, Mean ± SD ([2]; First cycle, n 2): 1.7 Gy/GBq
Absorbed Dose for Tumor Lesions, Liver metastases, Range ([2]; First cycle, n 2): 0.85-2.59 Gy/GBq
Absorbed Dose for Tumor Lesions, Lymph node metastases, Mean ± SD ([2]; First cycle, n 5): 2.6 ± 0.89 Gy/GBq
Absorbed Dose for Tumor Lesions, Lymph node metastases, Range ([2]; First cycle, n 5): 1.63-3.76 Gy/GBq
Absorbed Dose for Tumor Lesions, Bone metastases, Mean ± SD ([2]; First cycle, n 33): 3.8 ± 3.1 Gy/GBq
Absorbed Dose for Tumor Lesions, Bone metastases, Range ([2]; First cycle, n 33): 0.22-12.03 Gy/GBq
Absorbed Dose for Tumor Lesions, All metastases, Mean ± SD ([2]; First cycle, n 41): 3.5 ± 2.9 Gy/GBq
Absorbed Dose for Tumor Lesions, All metastases, Range ([2]; First cycle, n 41): 0.22-12.03 Gy/GBq
Absorbed Dose for Tumor Lesions, Liver metastases, Mean ± SD ([2]; Fourth cycle, n 2): 1.13 Gy/GBq
Absorbed Dose for Tumor Lesions, Liver metastases, Range ([2]; Fourth cycle, n 2): 0.74-1.51 Gy/GBq
Absorbed Dose for Tumor Lesions, Bone metastases, Mean ± SD ([2]; Fourth cycle, n 10): 2.7 ± 2.3 Gy/GBq
Absorbed Dose for Tumor Lesions, Bone metastases, Range ([2]; Fourth cycle, n 10): 1.04-7.60 Gy/GBq
Absorbed Dose for Tumor Lesions, All metastases, Mean ± SD ([2]; Fourth cycle, n 12): 2.4 ± 2.2 Gy/GBq
Absorbed Dose for Tumor Lesions, All metastases, Range ([2]; Fourth cycle, n 12): 0.74-7.60 Gy/GBq
Absorbed Dose, Kidneys, Mean ± SD ([2]; Fourth cycle): 0.69 ± 0.18 Gy/GBq
Absorbed Dose, Kidneys, Range ([2]; Fourth cycle): 0.45-0.95 Gy/GBq
Absorbed Dose, Lacrimal glands, Mean ± SD ([2]; Fourth cycle): 3.4 ± 1.7 Gy/GBq
Absorbed Dose, Lacrimal glands, Range ([2]; Fourth cycle): 1.75-5.35 Gy/GBq
Absorbed Dose, Liver, Mean ± SD ([2]; Fourth cycle): 0.11 ± 0.04 Gy/GBq
Absorbed Dose, Liver, Range ([2]; Fourth cycle): 0.07-0.17 Gy/GBq
Absorbed Dose, Parotid glands, Mean ± SD ([2]; Fourth cycle): 0.50 Gy/GBq
Absorbed Dose, Parotid glands, Range ([2]; Fourth cycle): 0.32-0.58 Gy/GBq
Absorbed Dose, Submandibular glands, Mean ± SD ([2]; Fourth cycle): 0.66 ± 0.53 Gy/GBq
Absorbed Dose, Submandibular glands, Range ([2]; Fourth cycle): 0.24-1.58 Gy/GBq
Effective Dose, Whole body, Mean ± SD ([2]; Fourth cycle): 0.05 Sv/GBq
Effective Dose, Whole body, Range ([2]; Fourth cycle): 0.03-0.11 Sv/GBq
Absorbed Dose, Kidneys, Mean ± SD ([2]; Overall (n = 34)): 0.72 ± 0.21 Gy/GBq
Absorbed Dose, Kidneys, Range ([2]; Overall (n = 34)): 0.33-1.22 Gy/GBq
Absorbed Dose, Lacrimal glands, Mean ± SD ([2]; Overall (n = 34)): 3.8 ± 1.4 Gy/GBq
Absorbed Dose, Lacrimal glands, Range ([2]; Overall (n = 34)): 1.68-7.03 Gy/GBq
Absorbed Dose, Liver, Mean ± SD ([2]; Overall (n = 34)): 0.12 ± 0.06 Gy/GBq
Absorbed Dose, Liver, Range ([2]; Overall (n = 34)): 0.05-0.26 Gy/GBq
Absorbed Dose, Parotid glands, Mean ± SD ([2]; Overall (n = 34)): 0.55 Gy/GBq
Absorbed Dose, Parotid glands, Range ([2]; Overall (n = 34)): 0.25-0.84 Gy/GBq
Absorbed Dose, Submandibular glands, Mean ± SD ([2]; Overall (n = 34)): 0.64 ± 0.40 Gy/GBq
Absorbed Dose, Submandibular glands, Range ([2]; Overall (n = 34)): 0.24-1.70 Gy/GBq
Effective Dose, Whole body, Mean ± SD ([2]; Overall (n = 34)): 0.06 Sv/GBq
Effective Dose, Whole body, Range ([2]; Overall (n = 34)): 0.02-0.11 Sv/GBq
Absorbed Dose for Tumor Lesions, Lung metastases, Mean ± SD ([2]; Overall, n 3): 1.75 ± 0.92 Gy/GBq
Absorbed Dose for Tumor Lesions, Lung metastases, Range ([2]; Overall, n 3): 0.94-2.68 Gy/GBq
Absorbed Dose for Tumor Lesions, Liver metastases, Mean ± SD ([2]; Overall, n 8): 1.2 ± 0.67 Gy/GBq
Absorbed Dose for Tumor Lesions, Liver metastases, Range ([2]; Overall, n 8): 0.47-2.59 Gy/GBq
Absorbed Dose for Tumor Lesions, Lymph node metastases, Mean ± SD ([2]; Overall, n 8): 3.2 ± 2.2 Gy/GBq
Absorbed Dose for Tumor Lesions, Lymph node metastases, Range ([2]; Overall, n 8): 1.63-8.46 Gy/GBq
Absorbed Dose for Tumor Lesions, Bone metastases, Mean ± SD ([2]; Overall, n 74): 3.4 ± 2.7 Gy/GBq
Absorbed Dose for Tumor Lesions, Bone metastases, Range ([2]; Overall, n 74): 0.22-12.03 Gy/GBq
Absorbed Dose for Tumor Lesions, All metastases, Mean ± SD ([2]; Overall, n 93): 3.2 ± 2.6 Gy/GBq
Absorbed Dose for Tumor Lesions, All metastases, Range ([2]; Overall, n 93): 0.22-12.03 Gy/GBq
Absorbed Dose for Tumor Lesions, Lung metastases, Mean ± SD ([2]; Second cycle, n 1): 1.3 Gy/GBq
Absorbed Dose for Tumor Lesions, Liver metastases, Mean ± SD ([2]; Second cycle, n 2): 0.94 Gy/GBq
Absorbed Dose for Tumor Lesions, Liver metastases, Range ([2]; Second cycle, n 2): 0.70-1.17 Gy/GBq
Absorbed Dose for Tumor Lesions, Lymph node metastases, Mean ± SD ([2]; Second cycle, n 2): 5.2 Gy/GBq
Absorbed Dose for Tumor Lesions, Lymph node metastases, Range ([2]; Second cycle, n 2): 1.98-8.46 Gy/GBq
Absorbed Dose for Tumor Lesions, Bone metastases, Mean ± SD ([2]; Second cycle, n 21): 3.4 ± 2.4 Gy/GBq
Absorbed Dose for Tumor Lesions, Bone metastases, Range ([2]; Second cycle, n 21): 1.03-9.59 Gy/GBq
Absorbed Dose for Tumor Lesions, All metastases, Mean ± SD ([2]; Second cycle, n 26): 3.3 ± 2.5 Gy/GBq
Absorbed Dose for Tumor Lesions, All metastases, Range ([2]; Second cycle, n 26): 0.70-8.46 Gy/GBq
Absorbed Dose, Kidneys, Mean ± SD ([2]; Second cycle): 0.75 ± 0.19 Gy/GBq
Absorbed Dose, Kidneys, Range ([2]; Second cycle): 0.44-1.01 Gy/GBq
Absorbed Dose, Lacrimal glands, Mean ± SD ([2]; Second cycle): 4.1 ± 1.1 Gy/GBq
Absorbed Dose, Lacrimal glands, Range ([2]; Second cycle): 2.44-5.56 Gy/GBq
Absorbed Dose, Liver, Mean ± SD ([2]; Second cycle): 0.13 ± 0.05 Gy/GBq
Absorbed Dose, Liver, Range ([2]; Second cycle): 0.08-0.21 Gy/GBq
Absorbed Dose, Parotid glands, Mean ± SD ([2]; Second cycle): 0.59 Gy/GBq
Absorbed Dose, Parotid glands, Range ([2]; Second cycle): 0.47-0.80 Gy/GBq
Absorbed Dose, Submandibular glands, Mean ± SD ([2]; Second cycle): 0.71 ± 0.42 Gy/GBq
Absorbed Dose, Submandibular glands, Range ([2]; Second cycle): 0.40-1.70 Gy/GBq
Effective Dose, Whole body, Mean ± SD ([2]; Second cycle): 0.06 Sv/GBq
Effective Dose, Whole body, Range ([2]; Second cycle): 0.03-0.11 Sv/GBq
Absorbed Dose for Tumor Lesions, Lung metastases, Mean ± SD ([2]; Third cycle, n 1): 0.94 Gy/GBq
Absorbed Dose for Tumor Lesions, Lymph node metastases, Mean ± SD ([2]; Third cycle, n 1): 2.6 Gy/GBq
Absorbed Dose for Tumor Lesions, Lymph node metastases, Range ([2]; Third cycle, n 1): 18.87 Gy/GBq
Absorbed Dose for Tumor Lesions, Liver metastases, Mean ± SD ([2]; Third cycle, n 2): 0.95 Gy/GBq
Absorbed Dose for Tumor Lesions, Liver metastases, Range ([2]; Third cycle, n 2): 0.47-1.42 Gy/GBq
Absorbed Dose for Tumor Lesions, Bone metastases, Mean ± SD ([2]; Third cycle, n 10): 3.2 ± 2.5 Gy/GBq
Absorbed Dose for Tumor Lesions, Bone metastases, Range ([2]; Third cycle, n 10): 1.11-7.99 Gy/GBq
Absorbed Dose for Tumor Lesions, All metastases, Mean ± SD ([2]; Third cycle, n 14): 2.7 ± 2.3 Gy/GBq
Absorbed Dose for Tumor Lesions, All metastases, Range ([2]; Third cycle, n 14): 0.94-7.99 Gy/GBq
Absorbed Dose, Kidneys, Mean ± SD ([2]; Third cycle): 0.73 ± 0.22 Gy/GBq
Absorbed Dose, Kidneys, Range ([2]; Third cycle): 0.42-0.93 Gy/GBq
Absorbed Dose, Lacrimal glands, Mean ± SD ([2]; Third cycle): 3.5 ± 1.4 Gy/GBq
Absorbed Dose, Lacrimal glands, Range ([2]; Third cycle): 2.41-5.04 Gy/GBq
Absorbed Dose, Liver, Mean ± SD ([2]; Third cycle): 0.12 ± 0.06 Gy/GBq
Absorbed Dose, Liver, Range ([2]; Third cycle): 0.07-0.21 Gy/GBq
Absorbed Dose, Parotid glands, Mean ± SD ([2]; Third cycle): 0.49 Gy/GBq
Absorbed Dose, Parotid glands, Range ([2]; Third cycle): 0.32-0.64 Gy/GBq
Absorbed Dose, Submandibular glands, Mean ± SD ([2]; Third cycle): 0.83 ± 0.59 Gy/GBq
Absorbed Dose, Submandibular glands, Range ([2]; Third cycle): 0.33-1.68 Gy/GBq
Effective Dose, Whole body, Mean ± SD ([2]; Third cycle): 0.06 Sv/GBq
Effective Dose, Whole body, Range ([2]; Third cycle): 0.03-0.10 Sv/GBq
mean whole-body effective dose ([2]; all cycles): 0.41±0.18 Sv
mean whole-body effective dose per GBq ([2]; all cycles): 0.06 Sv/GBq
